Measured values reported in patent US20060275769A1 (priority 2003, published 2006).
Entries after “also recorded” stand apart in the source; their conditions may differ.

What was measured:
[1] = tested on: KSHV-infected DMVEC; details: cited from earlier work
[2] = tested on: KSHV-infected DMVEC; details: cited from earlier work; remark: listed apart in the source
[3] = tested on: KSHV-infected DMVEC; assay: Inhibition of KSHV-induced spindle cell formation by PMO antisense gene silencing; assay type: cell-based, human; details: for effect on KSHV-induced spindle cell formation / phenotypic inhibition (in words): PMO antisense silencing; for Extent of PMO-induced Inhibition of Spindle Cell Formation / Phenotype Inhibition (inhibition of spindle cell formation): gene-specific PMO antisense
Text: Antisense Gene Silencing using PMOs. […] Silencing of such genes precluded progression into the transformed phenotype when silencing occurred prior to transformation, or induced reversion to the normal state when silencing occurred after induction of the transformed state (see TABLE 2 below).
(§1) Introduction of antisense PMO into KSHV-infected DMVEC. Antisense PMO molecules, for delivery purposes, are typically converted to a paired duplex together with a partially complementary cDNA oligonucleotide in the weakly basic delivery reagent ethoxylated polyethylenimine (EPEI) (Summerton, supra). The anionic complex binds to the cell surface, is taken up by endocytosis and eventually released into the cytosol. A protocol for optimum uptake of antisense PMO in immortalized DMVEC was developed using a modification of the EPEI method. Briefly, uninfected, immortalized DMVECs were incubated for 3 hours at 37° C. with 0.6 nmol/well FITC-PMO complexed with EPEI according to the manufacturer's instructions (Genetools, LLC, One Summerton Way, Philomath, OR 97370) (e.g., 1.25 n Mol oligomer with 2.5 μl EPEI reagent per 35 mm dish, allowing for sufficient antisense uptake without non-specific EPEI-induced toxicity). The PMOs were labeled with FITC to allow for monitoring of loading efficiency by fluorescence microscopy.
(§2) Specifically, DMVEC were infected with KSHV, plated in 35 mm dishes and allowed to grow to about 90% confluence. For treatment, KSHV-infected cells were treated with the anti-c-Kit PMO-antisense oligomer-EPEI delivery reagent complex and incubated for 3 hours at 37° C. in serum-free medium to allow for oligomer uptake. A titration experiment testing a range of different oligomer/EPEI volumes was used to determine that loading 1.25 nmol oligomer with 2.5 μl EPEI reagent per 35 mm dish allowed efficient antisense uptake without non-specific EPEI-induced toxicity. Control (mock-treated) DMVEC cultures were loaded with EPEI reagent and sterile water or sterile water alone. Upon removal of the oligomer-EPEI solution, cell monolayers were rinsed in serum-free medium fed with complete medium and examined daily for one week by phase microscopy for evidence of phenotypic change.

[4] = tested on: KSHV-infected DMVEC; assay: XTT proliferation assay after PMO loading; assay type: cell-based, human; details: PMO antisense silencing
Procedure: Proliferation assays, and loading of cells with PMOs. Proliferation of KSHV-infected DMVEC was quantified using an XTT (2,3-bis-(2-methoxy-4-nitro-5-sulfophenyl)-2H-tetrazolium-5-carboxanilide, disodium salt)-based assay. KSHV-infected cells were added to Primaria 96-well trays (Becton Dickinson) at 1×10^4 or 5×10^4 cells/well. XTT (Roche, Molecular Biochemicals, Indianapolis, Ind.) was added 48 hours later according to the manufacturer's instructions. Absorbance was read after 4 to 6 hours on a microplate reader.
Briefly, cells were plated in 96-well trays at a density approaching confluence (5×10^4 cells per well) in 100 μl of complete medium. PMOs were loaded the following day in a total of 100 μl (0.5 μl PMO, 0.5 μl EPEI, 49 μl H2O and 50 μl serum free medium) with reagent mixing as described by the manufacturer (GeneTools). Controls included a FITC PMO control oligonucleotide, EPEI only or H2O only. Each variable was performed in quadruplicate. Fresh complete medium was replaced 4 hours after loading. Cells were cultured for 4 days to allow for multi-layered cell growth post-confluence in the absence of any growth inhibition. XTT was added on day 4 of culture and the a bsorbance read 4 hrs later on a microplate reader. Cell proliferation (growth) values are given as percentage inhibition values, relative to cells without PMO, which are adjusted to 100%.

[5] = tested on: KSHV-infected DMVEC; assay: Focus formation / contact inhibition by phase microscopy after c-Kit PMO loading; assay type: cell-based, human; details: 1.25 nmol PMO and 2.5 μl EPEI per 35 mm dish, one week post-loading
Procedure: Proof of principal for target validation; silencing of c-Kit gene expression.
as §2

[6] = tested on: immortalized DMVEC; assay: Uptake and persistence of FITC-labeled PMO by fluorescence microscopy; assay type: cell-based, human; details: FITC-labeled PMO with EPEI, at 3 hours
Text: as §1
Cellular distribution of introduced FITC-labeled POM antisense molecules. […] Specifically, the c Kit antisense PMO molecules were initially concentrated in intracellular vesicles (endosomes) at 3 hours in about 70% of the cells, and distributed within the cytoplasm at 66 hours.

[7] = tested on: KSHV-infected DMVEC; assay: Inhibition of KSHV-induced spindle cell formation by PMO antisense gene silencing; assay type: cell-based, human

Row | Molecule | effect on KSHV-induced spindle cell formation / phenotypic inhibition (in words) [3] | Extent of PMO-induced Inhibition of Spindle Cell Formation [3] | Phenotype Inhibition (inhibition of spindle cell formation) [3] | inhibition of KSHV-induced cellular proliferation (in words) [4] | also measured
1 | Cc1ccc(NC(=O)c2ccc(CN3CCN(C)CC3)cc2)cc1Nc1nccc(-c2cccnc2)n1 [STI 571] | – | – | – | – | nonspecific cytotoxicity (cell viability controls) [1]: not due to nonspecific cytotoxicity; proliferative response of KSHV-infected DMVEC to exogenous SCF ([1]; exogenous SCF): inhibited; phenotype after removal of the compound ([2]; removal of STI 571, even after exposure to a 10 μM dose): regeneration of the transformed phenotype; focus formation ([2]; treatment to inhibit endogenous c-Kit tyrosine kinase activity): focus formation is inhibited
2 | AGCATGTCACGCACAGTGGCCTCAT (all phosphorodiamidate morpholino (PMO)) [ANGPTL2] | intermediate inhibitory effects | intermediate | Intermediate | – | –
3 | AGCTCGTGCTCTGCACACTCTGCAT (all phosphorodiamidate morpholino (PMO)) [NOV] | fully reversed spindle cell formation | full | Full | – | –
4 | AGCTTCATGTTGGAGGTGTTCG (all phosphorodiamidate morpholino (PMO)) [IFACTOR] | little or no affect on KSHV-induced spindle cell formation | none | None | relatively little or no significant inhibition | –
5 | CGCCTCTCATCGCGGTAGCTGCG (all phosphorodiamidate morpholino (PMO); further chemistry not fully specified) [KIT] | fully reversed spindle cell formation | full | Full | substantial inhibition of KSHV-induced cellular proliferation | foci formation / contact-inhibited growth ([5]; listed as c-Kit antisense PMO oligomer): did not develop foci; also recorded: did not progress to spindle cell and foci formation; foci formation / contact-inhibited growth ([5]; listed as c-Kit-specific antisense PMO oligonucleotides): did not develop foci; cells with PMO concentrated in intracellular vesicles (uptake) [6]: about 70%
6 | GAAGAGATGCAGATCCATCGTTCTG (all phosphorodiamidate morpholino (PMO)) [RDC-1] | fully reversed spindle cell formation | full | Full | substantial inhibition of KSHV-induced cellular proliferation | effect on KSHV-induced spindle cell formation / phenotypic inhibition (in words) ([7]; listed as RDC-1-specific PMO): full phenotypic inhibition
7 | GCCGAGGACATTGGGGAGGGAGGCG (all phosphorodiamidate morpholino (PMO)) [LMO2] | little or no affect on KSHV-induced spindle cell formation | none | – | – | –
8 | GGAGCACGGTCCAGGCGAAGCGCAT (all phosphorodiamidate morpholino (PMO)) [LOX] | fully reversed spindle cell formation | full | Full | – | –
9 | GGCAGCCCACTCTCTCGGCAGCATG (all phosphorodiamidate morpholino (PMO)) [IGFBP2] | fully reversed spindle cell formation | full | Full | substantial inhibition of KSHV-induced cellular proliferation | –
10 | GGCTCCATCTTGGGCTCTGGGCTCC [FLJ14103] | fully reversed spindle cell formation | full | – | – | –
11 | GGGTCTCCTCGGATCAGGCGCG (all phosphorodiamidate morpholino (PMO)) [INSR] | intermediate inhibitory effects | intermediate | Intermediate | substantial inhibition of KSHV-induced cellular proliferation | –
12 | GTCAGTTTACTCATGTCATCTATTG (all phosphorodiamidate morpholino (PMO)) [KIAA0367] | intermediate inhibitory effects | intermediate | Intermediate | substantial inhibition of KSHV-induced cellular proliferation | effect on KSHV-induced spindle cell formation / phenotypic inhibition (in words) ([7]; listed as KIAA0367-specific PMO): intermediate phenotypic inhibition
13 | Osteopontin | – | – | None | relatively little or no significant inhibition | –
14 | TGAATAAGCAACAATGTAGCTTCAT (all phosphorodiamidate morpholino (PMO)) [MFAP3] | little or no affect on KSHV-induced spindle cell formation | none | None | relatively little or no significant inhibition | effect on KSHV-induced spindle cell formation / phenotypic inhibition (in words) ([7]; listed as MFAP-specific PMO): no phenotypic inhibition
15 | TTAACTCCCATCCTACGTTTAGTCA (all phosphorodiamidate morpholino (PMO)) [Neuritin] | fully reversed spindle cell formation | full | Full | substantial inhibition of KSHV-induced cellular proliferation | –
